The values below come from US12064412B2 (SUN YAT-SEN UNIVERSITY, priority 2019, dated 2024).

For data set [1] the following is noted: oral administration, rat; cited from earlier work.
The nature of data set [2]: Phase solubility of naringenin with hydroxypropyl β-cyclodextrin in environments of different pH values. In kind it is physicochemical. As to conditions: basic pH (8 and 9) versus ultrapure water, same hydroxypropyl β-cyclodextrin concentration (0-16% w/v), 25±1° C., 48 hours. The source says:
The process of the experimentation on the coating and solubilization of naringenin by hydroxypropyl β-cyclodextrin comprises:
preparing buffer-salt solutions of pH values of 4, 8 and 9 according to the method on a pharmacopoeia, adding different masses of the hydroxypropyl β-cyclodextrin into the buffer-salt solutions of the pH values of 4, 8 and 9 and ultrapure water, to prepare solutions of hydroxypropyl β-cyclodextrin of mass fractions (w/v) of 0, 2, 4, 8 and 16%, adding individually excessive naringenin, shaking in a constant-temperature shaking table at 25±1° C. at 200 rpm for 48 hours, taking out, standing, filtering by using a 0.45 μm microporous filter membranes, removing the primary filtrate, properly diluting the subsequent filtrate, and performing ultraviolet assay.
The detection method comprises, by using ultraviolet-visible spectrophotometry, measuring at the wavelength of 288 nm.
The preparing of a stock solution of the reference substance comprises: precisely weighing an appropriate amount of the naringenin reference substance that has been dried at 105° C. to constant weight, placing in a 10 mL volumetric flask, and dissolving by using methanol to volume, to obtain a stock solution of the reference substance of the concentration of 1 mg/mL. […]

The conditions of data set [3]: oral dosage of 21 mg/kg, as reported by documents; cited from earlier work.

SMILES strings stand for the structures.

As for `O=C1C[C@@H](c2ccc(O)cc2)Oc2cc(O)cc(O)c21` [naringenin], the “bioavailability, as calculated by the free naringenin” value in data set [1] is “approximately 4%”. Moreover, the “total naringenin concentration in hydroxypropyl β-cyclodextrin solution at basic pH relative to ultrapure water” value in data set [2] is “approximately 3 times”. Further, in data set [3], the AUC0-t is 15080.4 ng·min/g and the Tmax was 2 h.

By Tmax is commonly meant the time at which the peak concentration occurs.
